Measured values from ChEMBL document CHEMBL1201862, “PubChem BioAssay data set” (2004).
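Cultured in 96-well plates, cells were exposed to test compound for 48 hours across five concentrations. GI50: concentration for 50% inhibition of growth.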 Activity calls are given as the source filed them. Cut-off read from the data, not from the text of the source: active = GI50 up to about 1.1 µM and inactive = higher.

Experiments:
Experiment in all cases: NCI anticancer screen, dose series, 48 h
NCI-H226 = test system: NCI-H226
EKVX = test system: EKVX
SK-MEL-2 = test system: SK-MEL-2
TK-10 = test system: TK-10
SK-MEL-28 = test system: SK-MEL-28
MDA-N = test system: MDA-N
T47D = test system: T47D
U-251 = test system: U-251
HOP-92 = test system: HOP-92
SNB-75 = test system: SNB-75
A498 = test system: A498
SK-MEL-5 = test system: SK-MEL-5
PC-3 = test system: PC-3
HT-29 = test system: HT-29
UACC-257 = test system: UACC-257
NCI-H522 = test system: NCI-H522
HCT-116 = test system: HCT-116
SR = test system: SR
K562 = test system: K562
CCRF-CEM = test system: CCRF-CEM
MCF7 = test system: MCF7
RXF 393 = test system: RXF 393
SW-620 = test system: SW-620
Malme-3M = test system: Malme-3M
SF-268 = test system: SF-268
NCI-H23 = test system: NCI-H23
MDA-MB-231 = test system: MDA-MB-231
NCI/ADR-RES = test system: NCI/ADR-RES
HOP-62 = test system: HOP-62
BT-549 = test system: BT-549
MDA-MB-435 = test system: MDA-MB-435
OVCAR-5 = test system: OVCAR-5
SF-539 = test system: SF-539
RPMI-8226 = test system: RPMI-8226
DU-145 = test system: DU-145
UO-31 = test system: UO-31
SN12C = test system: SN12C
NCI-H460 = test system: NCI-H460
KM12 = test system: KM12
OVCAR-3 = test system: OVCAR-3
SK-OV-3 = test system: SK-OV-3
Hs-578T = test system: Hs-578T
CAKI-1 = test system: CAKI-1
LOX IMVI = test system: LOX IMVI
786-0 = test system: 786-0
MOLT-4 = test system: MOLT-4
UACC-62 = test system: UACC-62
HCT-15 = test system: HCT-15
SF-295 = test system: SF-295
IGROV-1 = test system: IGROV-1
ACHN = test system: ACHN
HCC 2998 = test system: HCC 2998
COLO 205 = test system: COLO 205
OVCAR-4 = test system: OVCAR-4
A549 = test system: A549
OVCAR-8 = test system: OVCAR-8
SNB-19 = test system: SNB-19
HL-60 = test system: HL-60

## O=c1[nH]cnc2c1ncn2[C@H]1CO[C@@H](CO)[C@@H]1O
NCI-H226
  GI50: > 100 µM (inactive)
EKVX
  GI50: > 100 µM (inactive)
SK-MEL-2
  GI50: > 100 µM (inactive)
TK-10
  GI50: > 100 µM (inactive)
SK-MEL-28
  GI50: > 100 µM (inactive)
MDA-N
  GI50: > 100 µM (inactive)
T47D
  GI50: > 100 µM (inactive)
U-251
  GI50: > 100 µM (inactive)
HOP-92
  GI50: > 100 µM (inactive)
SNB-75
  GI50: > 100 µM (inactive)
A498
  GI50: > 100 µM (inactive)
SK-MEL-5
  GI50: > 100 µM (inactive)
PC-3
  GI50: > 100 µM (inactive)
HT-29
  GI50: > 100 µM (inactive)
UACC-257
  GI50: > 100 µM (inactive)
NCI-H522
  GI50: > 100 µM (inactive)
HCT-116
  GI50: > 100 µM (inactive)
SR
  GI50: > 100 µM (inactive)
K562
  GI50: > 100 µM (inactive)
CCRF-CEM
  GI50: > 100 µM (inactive)
MCF7
  GI50: > 100 µM (inactive)
RXF 393
  GI50: > 100 µM (inactive)
SW-620
  GI50: > 100 µM (inactive)
Malme-3M
  GI50: > 100 µM (inactive)
SF-268
  GI50: > 100 µM (inactive)
NCI-H23
  GI50: > 100 µM (inactive)
MDA-MB-231
  GI50: > 100 µM (inactive)
NCI/ADR-RES
  GI50: > 100 µM (inactive)
HOP-62
  GI50: > 100 µM (inactive)
BT-549
  GI50: > 100 µM (inactive)
MDA-MB-435
  GI50: > 100 µM (inactive)
OVCAR-5
  GI50: > 100 µM (inactive)
SF-539
  GI50: > 100 µM (inactive)
RPMI-8226
  GI50: > 100 µM (inactive)
DU-145
  GI50: > 100 µM (inactive)
UO-31
  GI50: > 100 µM (inactive)
SN12C
  GI50: > 100 µM (inactive)
NCI-H460
  GI50: > 100 µM (inactive)
KM12
  GI50: > 100 µM (inactive)
OVCAR-3
  GI50: > 100 µM (inactive)
SK-OV-3
  GI50: > 100 µM (inactive)
Hs-578T
  GI50: > 100 µM (inactive)
CAKI-1
  GI50: > 100 µM (inactive)
LOX IMVI
  GI50: > 100 µM (inactive)
786-0
  GI50: > 100 µM (inactive)
MOLT-4
  GI50: > 100 µM (inactive)
UACC-62
  GI50: > 100 µM (inactive)
HCT-15
  GI50: > 100 µM
SF-295
  GI50: > 100 µM (inactive)
IGROV-1
  GI50: > 100 µM (inactive)
ACHN
  GI50: > 100 µM (inactive)
HCC 2998
  GI50: > 100 µM (inactive)
COLO 205
  GI50: > 100 µM (inactive)
OVCAR-4
  GI50: > 100 µM (inactive)

## COC(=O)c1ccc(C)cc1C1CN=NC12Cc1c(C)cccc1C2=O (configuration not stated)
NCI-H226
  GI50: 47 µM (inactive)
EKVX
  GI50: > 100 µM (inactive)
SK-MEL-2
  GI50: 43.5 µM (inactive)
TK-10
  GI50: 99.3 µM (inactive)
SK-MEL-28
  GI50: 80.4 µM (inactive)
MDA-N
  GI50: 37.5 µM (inactive)
T47D
  GI50: 23.7 µM (inactive)
U-251
  GI50: 42.1 µM (inactive)
HOP-92
  GI50: 38.6 µM (inactive)
SNB-75
  GI50: 32 µM (inactive)
A498
  GI50: 52.5 µM (inactive)
SK-MEL-5
  GI50: 30 µM (inactive)
PC-3
  GI50: 40.2 µM (inactive)
HT-29
  GI50: 31.1 µM (inactive)
UACC-257
  GI50: 49.7 µM (inactive)
NCI-H522
  GI50: 24.2 µM (inactive)
HCT-116
  GI50: 25.6 µM (inactive)
SR
  GI50: 33.3 µM (inactive)
K562
  GI50: 47.5 µM (inactive)
CCRF-CEM
  GI50: 53.5 µM (inactive)
MCF7
  GI50: 0.394 µM (active)
RXF 393
  GI50: 48.3 µM (inactive)
SW-620
  GI50: 58.9 µM (inactive)
Malme-3M
  GI50: 58.2 µM (inactive)
SF-268
  GI50: 52.2 µM (inactive)
NCI-H23
  GI50: 39.4 µM (inactive)
MDA-MB-231
  GI50: 38.5 µM (inactive)
A549
  GI50: 49.4 µM (inactive)
OVCAR-8
  GI50: 60.1 µM (inactive)
NCI/ADR-RES
  GI50: 20.3 µM (inactive)
HOP-62
  GI50: 46.8 µM (inactive)
BT-549
  GI50: 75 µM (inactive)
MDA-MB-435
  GI50: 41 µM (inactive)
OVCAR-5
  GI50: 73.5 µM (inactive)
SNB-19
  GI50: 73.1 µM (inactive)
SF-539
  GI50: 89.1 µM (inactive)
RPMI-8226
  GI50: 36.6 µM (inactive)
DU-145
  GI50: 55.7 µM (inactive)
UO-31
  GI50: 42.9 µM (inactive)
SN12C
  GI50: 36 µM (inactive)
NCI-H460
  GI50: 64.7 µM (inactive)
HL-60
  GI50: 28.4 µM (inactive)
KM12
  GI50: 32.1 µM (inactive)
OVCAR-3
  GI50: 27 µM (inactive)
SK-OV-3
  GI50: 94.8 µM (inactive)
Hs-578T
  GI50: 37.6 µM (inactive)
CAKI-1
  GI50: 50.6 µM (inactive)
LOX IMVI
  GI50: 24.3 µM (inactive)
786-0
  GI50: 52.1 µM (inactive)
MOLT-4
  GI50: 41.7 µM (inactive)
UACC-62
  GI50: 28.4 µM (inactive)
HCT-15
  GI50: 28.6 µM
SF-295
  GI50: 50.4 µM (inactive)
IGROV-1
  GI50: 46.1 µM (inactive)
ACHN
  GI50: 45.4 µM (inactive)
HCC 2998
  GI50: > 100 µM (inactive)
COLO 205
  GI50: 20.2 µM (inactive)
OVCAR-4
  GI50: 44.1 µM (inactive)
